Data published in ChEMBL document CHEMBL1201862, “PubChem BioAssay data set” (2004).
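How tested: cells in 96-well plates exposed to compound for 48 hours at five concentrations. The concentration for 50% growth inhibition is given as GI50.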 The source made the active and inactive calls. Rule as the data show it: active = GI50 up to about 1.1 µM and inactive = higher.

Experiments:
Assay in all cases: NCI tumour cell line growth inhibition, 48 h
786-0 = system: 786-0
BT-549 = system: BT-549
CCRF-CEM = system: CCRF-CEM
COLO 205 = system: COLO 205
HCC 2998 = system: HCC 2998
HCT-116 = system: HCT-116
HOP-62 = system: HOP-62
HOP-92 = system: HOP-92
HT-29 = system: HT-29
Hs-578T = system: Hs-578T
K562 = system: K562
KM12 = system: KM12
LOX IMVI = system: LOX IMVI
M14 = system: M14
MDA-MB-231 = system: MDA-MB-231
MDA-N = system: MDA-N
MOLT-4 = system: MOLT-4
NCI-H226 = system: NCI-H226
NCI-H23 = system: NCI-H23
NCI-H460 = system: NCI-H460
NCI-H522 = system: NCI-H522
NCI/ADR-RES = system: NCI/ADR-RES
OVCAR-3 = system: OVCAR-3
OVCAR-4 = system: OVCAR-4
OVCAR-8 = system: OVCAR-8
PC-3 = system: PC-3
RXF 393 = system: RXF 393
SF-268 = system: SF-268
SF-295 = system: SF-295
SK-MEL-28 = system: SK-MEL-28
SK-OV-3 = system: SK-OV-3
SN12C = system: SN12C
SNB-19 = system: SNB-19
SNB-75 = system: SNB-75
SW-620 = system: SW-620
TK-10 = system: TK-10
U-251 = system: U-251
UACC-62 = system: UACC-62
A498 = system: A498
A549 = system: A549
ACHN = system: ACHN
CAKI-1 = system: CAKI-1
DU-145 = system: DU-145
EKVX = system: EKVX
HCT-15 = system: HCT-15
HL-60 = system: HL-60
IGROV-1 = system: IGROV-1
MCF7 = system: MCF7
MDA-MB-435 = system: MDA-MB-435
Malme-3M = system: Malme-3M
OVCAR-5 = system: OVCAR-5
SK-MEL-2 = system: SK-MEL-2
SK-MEL-5 = system: SK-MEL-5
UACC-257 = system: UACC-257
UO-31 = system: UO-31

Measured: GI50

C/C(=N\c1ccc(Cl)c(Cl)c1)c1ccncc1
inactive: 786-0 > 100 µM | BT-549 > 100 µM | CCRF-CEM > 100 µM | COLO 205 > 100 µM | HCC 2998 > 10 µM | HCT-116 > 100 µM | HOP-62 > 100 µM | HOP-92 > 100 µM | HT-29 > 100 µM | Hs-578T > 100 µM | K562 > 100 µM | KM12 > 100 µM | LOX IMVI > 100 µM | M14 > 100 µM | MDA-MB-231 > 100 µM | MDA-N > 100 µM | MOLT-4 > 100 µM | NCI-H226 > 100 µM | NCI-H23 > 100 µM | NCI-H460 > 100 µM | NCI-H522 > 100 µM | NCI/ADR-RES > 100 µM | OVCAR-3 > 100 µM | OVCAR-4 > 100 µM | OVCAR-8 > 100 µM | PC-3 > 100 µM | RXF 393 > 100 µM | SF-268 > 100 µM | SF-295 > 100 µM | SK-MEL-28 > 100 µM | SK-OV-3 > 100 µM | SN12C > 100 µM | SNB-19 > 100 µM | SNB-75 > 100 µM | SW-620 > 100 µM | TK-10 > 100 µM | U-251 > 100 µM | UACC-62 > 100 µM

CC(C)CNCCc1ccccn1
> 100 µM: HCT-15
inactive: 786-0 > 100 µM | A498 > 100 µM | A549 > 100 µM | ACHN > 100 µM | BT-549 > 100 µM | CAKI-1 > 100 µM | CCRF-CEM > 100 µM | COLO 205 > 100 µM | DU-145 > 100 µM | EKVX > 100 µM | HCC 2998 > 100 µM | HCT-116 > 100 µM | HL-60 > 100 µM | HOP-62 > 100 µM | HOP-92 > 100 µM | HT-29 > 100 µM | Hs-578T > 100 µM | IGROV-1 > 100 µM | KM12 > 100 µM | LOX IMVI > 100 µM | M14 > 100 µM | MCF7 > 100 µM | MDA-MB-231 > 100 µM | MDA-MB-435 > 100 µM | MDA-N > 100 µM | Malme-3M > 100 µM | NCI-H226 > 100 µM | NCI-H23 > 100 µM | NCI-H460 > 100 µM | NCI-H522 > 100 µM | NCI/ADR-RES > 100 µM | OVCAR-3 > 100 µM | OVCAR-4 > 100 µM | OVCAR-5 > 100 µM | OVCAR-8 > 100 µM | PC-3 > 100 µM | RXF 393 > 100 µM | SF-268 > 100 µM | SF-295 > 100 µM | SK-MEL-28 > 100 µM | SK-MEL-2 > 100 µM | SK-MEL-5 > 100 µM | SK-OV-3 > 100 µM | SN12C > 100 µM | SNB-19 > 100 µM | SNB-75 > 100 µM | SW-620 > 100 µM | TK-10 > 100 µM | U-251 > 100 µM | UACC-257 > 100 µM | UACC-62 > 100 µM | UO-31 > 100 µM
